Measured values taken from US4661491A, “Alfuzosine compositions and use” (Synthelabo, priority 1985, dated 1987).

What was measured:
[1] = Clinical study in paraplegics, micturition test; format: in vivo, human
Experimental: A clinical study was also performed in paraplegics.
The paraplegic, or spinal man, gives rise to an experimental model of the peripheral receptors, since he embodies a disconnection from the influence of the higher, diencephalic and cortical nerve centres.
Given the localization of the alpha-adrenergic receptors in the posterior urethra and the vesico-urethral segment or neck, alpha-adrenergic hypertonia is the source of dysuria and disturbances of micturition. The opening of the neck and the fall in the pressure gradient in the posterior urethra are the two conditions required for the production of effective micturition.
Alfuzosine was administered intravenously, and then orally if the first test is positive. 5 mg of alfuzosine are injected intravenously in the course of 20 min.
The test is considered to be positive if an initiation of micturition, that is to say, necessarily, opening of the neck, takes place.
For patients for whom the test is positive, the administration of alfuzosine was then performed orally at the rate of 9 mg/24 h/28 d.

[2] = biological target: T1, α-adrenergic receptors (Oryctolagus cuniculus, UniProt O02824); assay: Phenylephrine-induced contraction of rabbit trigone muscle and urethra preparations; format: biochemical
T1 construct: The bladder and urethra are rapidly removed and placed in lukewarm Krebs solution; from tissue; host or cells: rabbit bladder trigone muscle and urethra ring, isolated organ
T1 sequence (O02824 1-466): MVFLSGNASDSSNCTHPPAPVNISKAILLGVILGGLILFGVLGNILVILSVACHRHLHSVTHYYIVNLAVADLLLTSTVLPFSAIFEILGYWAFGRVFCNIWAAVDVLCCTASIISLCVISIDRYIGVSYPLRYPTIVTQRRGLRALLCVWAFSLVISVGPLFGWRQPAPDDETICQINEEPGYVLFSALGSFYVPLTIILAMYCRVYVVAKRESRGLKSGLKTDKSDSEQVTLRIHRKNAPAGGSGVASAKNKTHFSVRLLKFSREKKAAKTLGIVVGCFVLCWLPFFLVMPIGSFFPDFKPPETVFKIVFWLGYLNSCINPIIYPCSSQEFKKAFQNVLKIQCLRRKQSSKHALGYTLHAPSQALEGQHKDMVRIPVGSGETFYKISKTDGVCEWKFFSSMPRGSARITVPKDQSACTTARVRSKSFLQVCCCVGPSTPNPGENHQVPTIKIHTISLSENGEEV
Experimental: Male rabbits (CEGAN) weighing 3 to 4 kg are sacrificed by exsanguination and cervical dislocation.
The bladder and urethra are rapidly removed and placed in lukewarm Krebs solution containing bicarbonate.
The composition of this Krebs medium is as follows, in mM: NaCl 114; KCl 4.7; CaCl2 2.5; KH2 PO4 1.2; MgSO4 1.2; NaHCO3 25.0; glucose 11.7; ascorbic acid 1.1. Propranolol (1.0 μM) is added into the Krebs medium to block the β-adrenergic receptors.
The bladder is opened transversely and the "trigone" region of the muscle, located on the dorsal surface of the bladder and between the two ureters, is dissected out.
A 5 mm ring of urethra, from the region situated between the base of the bladder and the prostate, is also prepared.
The portions of trigone muscle and urethra are washed under a tension of 1 g in Krebs medium.
The contraction-response curve to cumulated concentrations of phenylephrine is determined.
Additions of the agonist are performed every 5 min. The tissues are washed until the original tension is reestablished, and are then incubated for 30 min with alfuzosine. A second response curve to phenylephrine is determined in the presence of alfuzosine.
The response curves to concentrations of phenylephrine in the presence or absence of alfuzosine are expressed as a percentage of the maximum response obtained relative to the control curve.
The power of alfuzosine is calculated in the form of pA2 by Schild's method, where pA2 =negative logarithm of the molar concentration of alfuzosine which causes a rightward shift of the response curve to the agonist.

[3] = Clinical study, sphincterometric measurements in patients with dysuria of neurological origin with urethral hypertonia; format: in vivo, human; settings: 5 mg i.v. over 20 min; p<0.001
Experimental: By means of clinical studies, it has also been possible to show the efficacy of alfuzosine in patients suffering from dysuria of neurological origin with urethral hypertonia.
5 mg of alfuzosine are injected intravenously continuously for a period of 20 min. Sphincterometric measurements were made using an electronic micro-sensor, before and after the injection of the drug, at the bladder neck and at the striated sphincter of the posterior urethra.

With `COc1cc2nc(N(C)CCCNC(=O)C3CCCO3)nc(N)c2cc1OC` (stereo not shown) [Alfuzosine] the “initiation of micturition under oral treatment” value ([1]; paraplegics positive in i.v. test, per os 9 mg/24 h/28 d) was “enabled micturition to be rendered easier to initiate”, the “intra-urethral pressures after injection” value ([1]; paraplegics, 5 mg i.v. in 20 min) was “decrease significantly” and the “shift of the response curve to phenylephrine” value ([2]; alfuzosine 3.0 μM, 30 min incubation, trigone muscle and urethra) was “significant rightward parallel shift”. For the same compound, the Kb ([2]; antagonism of phenylephrine contraction, read-out: pA2 (Schild analysis) (converted)) was 89.1 nM, the “reduction in the maximum contractile effects of phenylephrine” value ([2]; trigone muscle and urethra, 30 min) was 20 to 30% and the “pressure decrease at the bladder neck” value [3] was 44%. For the same compound, the “pressure decrease at the striated sphincter” value [3] was 39%.
